According to PubChem BioAssay AID652 (University of Pittsburgh Molecular Library Screening Center, 2007):

What follows are compounds tested against Gag-Pol polyprotein (Human immunodeficiency virus type 1 group M subtype B (isolate HXB2)) (UniProt P04585) (assay: HIV-1 RT RNase H inhibitor potency, dose response, biochemical, probe assessment (AID 652)). Conditions: HIV-1 RT RNase H enzymatic assay, inhibition, at 50 µM, stronger effect = higher value.

SMILES | inhibition [%]
Cc1cc(C)c2c(=O)n(CC(=O)NCCCN3CCOCC3)sc2n1 | 80.5
Fc1ccc(-c2nnc3sc(-c4ccc5c(c4)OCO5)nn23)cc1 | 72.3
c1ccc(Cc2nn3c(Cn4cnc5ccccc54)nnc3s2)cc1 | 91.2
Cc1oc(-c2ccc(Cl)cc2)cc1-c1nn2c(-c3ccoc3C)nnc2s1 | 78.4
C=CCn1c(SCC(=O)NC(=O)NCc2ccco2)nc2sc(C)c(C)c2c1=O | 83.8
CCOC(=O)N(c1ccccc1)P1(=S)OCCO1 | 85.5
COc1cc(-c2nn3c(Cc4ccccc4)nnc3s2)cc(OC)c1OC | 86
Cc1nc(C)c(C(=O)Nc2nc3c(C)cccc3s2)o1 | 100
O=C(O)/C=C/c1ccc(O)c(O)c1 | 52.1
O=C(CCSCCC(=O)NCc1ccco1)NCc1ccco1 | 98.4
O=C(NC(=O)c1ccc(Cl)cc1)Nc1cc(N2CCCCC2)ncn1 | 97.4
N#Cc1c(N)nc(SCC(=O)NC2CCCCC2)c(C#N)c1-c1ccc(Cl)cc1 | 64.2
O=C(O)c1cc(S(=O)(=O)Nc2ccc3oc(=O)sc3c2)ccc1O | 88.2
CCOc1cc(C2c3c(oc4cc(C)c(Cl)cc4c3=O)C(=O)N2Cc2ccco2)ccc1O (stereo unspecified) | 76.5
Cc1cccc(NC(=O)Cn2c(C)c(C#N)c3ccccc32)c1C | 89
CCCCCCn1c(SCC(=O)OC)nc2c1c(=O)[nH]c(=O)n2C | 79.6
Oc1ccc(-c2nc(-c3ccc(O)c(O)c3)cs2)cc1 | 101
COc1ccc(C(=S)N(C)C)cc1OC | 78.6
COc1ccc(Br)cc1C1CC(=O)N2CN(C)CSC2=C1C#N (stereo unspecified) | 84.1
CCCc1cc(C(N)=O)c(NC(=O)C2CCCO2)s1 (stereo unspecified) | 98.3
COc1ccc(OC)c(Nc2nc(-c3ccc(O)c(O)c3)cs2)c1 | 97.8

SMILES | inhibition [%]
c1ccc(-c2ccc(-c3ccccn3)nn2)nc1 | 52.4
CCOc1cc(C2C(C#N)=C(N)SC(N)=C2C#N)ccc1OCCN1CCOCC1 | 41.5
CC(=O)c1cccc(NC(=O)c2cc(-c3ccc(C)cc3)on2)c1 | 95.8
CCOc1ccc(N2Cc3ccccc3C2)cc1 | 80
Cc1ccc(NC(=O)CSc2nnc(-c3ccc(S(=O)(=O)N4CCCC4)cc3)o2)cc1C | 88.6
CCn1c2ccccc2c2nc3cc(S(=O)(=O)N4CCOCC4)ccc3nc21 | 88.9
CC(=O)C(C(C)=O)c1c(Cl)c(O)c(O)c2c(C(=O)c3ccccc3)coc12 | 93.1
CC(=O)N(Cc1cc(=O)[nH]c2ccccc12)c1cccc(C)c1 | 89.9
c1cncc(-c2nn3c(Cn4cnc5ccccc54)nnc3s2)c1 | 85.4
CC(C)CN(C(=O)COC(=O)c1ccc2c(c1)NC(=O)CS2)C1CCS(=O)(=O)C1 (stereo unspecified) | 55.8
C=CCOC(=O)C1=C(C)NC(SCC(=O)Nc2ccc(C)c(Cl)c2)=C(C#N)C1c1ccco1 (stereo unspecified) | 98.7
Cc1cc(C)cc(OCC(=O)Nc2nonc2NC(=O)COc2cc(C)cc(C)c2)c1 | 88
N#CC1=C(N)SC(N)=C(C#N)C1c1ccnc2ccccc12 | 70.4
COc1cc(OC)c(C2CC(=O)N3CN(c4ccccc4C)CSC3=C2C#N)cc1OC (stereo unspecified) | 97.9
Fc1ccc(-c2ccc(-c3nn4c(-c5ccco5)nnc4s3)o2)cc1 | 88
Nc1c(C(=O)N2CCOCC2)sc(=S)n1-c1ccccc1 | 75.2
NC(=O)c1cc(-c2ccccc2)sc1NC(=O)Cc1ccc(S(=O)(=O)N2CCOCC2)s1 | 83.3
CCC1(C)Cc2c(sc3c2c(=O)n(C)c2nnc(SCc4ccc5c(c4)OCO5)n32)CO1 (stereo unspecified) | 96.2
O=C(c1ccc2c3c(cccc13)C(=O)N(O)C2=O)N1CCCCC1 | 91.7
Cc1nn(CCc2nc(-c3ccco3)cs2)c2[nH]c(=O)cc(C(F)(F)F)c12 | 97.6
Nc1ccc(-c2nnc(-c3ccc(-c4ccccc4)cc3)o2)cc1 | 101

SMILES | inhibition [%]
Cc1cccc(C(=O)OCC(=O)Nc2ccc(N3CCCCC3)cc2)c1O | 94.7
CC(C)Sc1nc(-c2cccs2)nc2c1c(=O)n(C)c(=O)n2C | 98.9
Cc1ccc2c(SCC(=O)NCc3ccco3)nc(-c3ccc(F)cc3)nc2c1 | 79.6
S=c1nc(C2CC2)[nH]c2ccccc12 | 97.1
O=C1c2sc3nc4ccccc4n3c2C(=O)N1c1ccccc1Cl | 98.9
CCOC(=O)CSc1nc2cc(C(=O)NCc3ccco3)ccc2c(=O)n1C1CCCCC1 | 89
O=C1C=Cc2ccccc2C1=O | 97.7
O=C(O)c1ccc2c(c1)NC(=O)C(N1CCCC1)S2 (stereo unspecified) | 75.8
CC(C)OC(=O)CSc1nnc(-c2ccc(C(C)(C)C)cc2)n1N | 59.5
CC(C)Cn1c(SCC(=O)NC(=O)Nc2ccc3c(c2)OCCO3)nc2ccccc2c1=O | 83.9
CC1CCN(S(=O)(=O)c2ccc(NC(=O)Cn3nnc(-c4ccccc4)n3)cc2)CC1 | 61.5
CC(C)(C)C1=Nn2c(nnc2-c2ccccn2)SC1 | 80.5
CCCSc1nc2c(cnn2-c2ccc(Cl)cc2)c(=O)[nH]1 | 92.8
CCCCn1c(CN2C(=O)c3ccccc3C2=O)nc2ccccc2c1=O | 98
O=C(CSc1nc2sc3c(c2c(=O)n1-c1ccccc1)CCCC3)NCc1ccco1 | 77.8
O=C(Nc1ccc2nc(-c3ccco3)c(-c3ccco3)nc2c1)N1CCCCCC1 | 97
Cc1cc(C)n2c(=S)[nH]nc2n1 | 71.1
Cc1ccnc(-n2sc3ccccc3c2=O)n1 | 96.7
CCCCn1c(SCC(=O)OCC)nc2c1c(=O)[nH]c(=O)n2C | 55.7
